Measured values taken from patent US20160159778A1, “NOVEL UREIDO DERIVATIVES OF NAPHTHALENESULFONIC ACIDS” (NeED PHARMACEUTICALS S.r.l., priority 2013, published 2016).

Experiments:
Type in all cases: cell-based
[1] = tested on: HIV-1 IIIB (strain using CXCR4); experiment: HIV-1 IIIB replication in PHA-activated peripheral blood mononuclear cells (p24 in supernatant); conditions: for inhibition of replication of HIV-1 IIIB: PBMC
Method: (§1) The compound (VII) has been tested for its ability to modulate the viral replication of HIV-1, both of a strain using CXCR4 (IIIB) and a strain using CCR5 (Bal) as co-receptor, in addition to the primary receptor CD4.
(§2) For the in-vitro infections primary cells have been used, specifically peripheral blood mononuclear cells from healthy donors pre-activated for 48 hours through a mitogenic stimulus (phytohemagglutinin) to allow for the infection by HIV-1. The cells have been incubated with IIIB and Bal viruses in absence or in presence of scalar concentrations of compound (VII) for 30 minutes at 37° C., then they have been washed to remove the excess virus, plated in triplicate in culture microplates and the compound VII has been re-added to the wells, in the test concentrations. The control culture has been set up in presence of dimethylsulfoxyde (DMSO), the compound in which the compound VII has been dissolved, in order to more correctly evaluate a net effect of the compound. The viral replication has been evaluated by measuring the structural protein of HIV-1 p24 (expressed in ng/ml) by an immune-enzymatic test carried out on the culture supernatants harvested on days 4 and 7 post-infection.
(§3) The graphs show the mean values of the culture triplicate with the standard deviation on post-infection days 4 and 7.

[2] = tested on: HIV-1 Bal (strain using CCR5); experiment: HIV-1 Bal replication in PHA-activated peripheral blood mononuclear cells (p24 in supernatant); conditions: PBMC
Method: as §1, §2, §3

[3] = tested on: fusion mediated by gp120 of HIV-1 using CCR5; experiment: gp120-mediated cell-cell fusion assay, target cells with CD4 and CCR5 (colorimetric, OD 570 nm); conditions: target cells 3T3 mouse fibroblasts and HeLa human epithelial cells (FIG. 3 B/D)
Source text: (§4) In order to evaluate on which step of the complex HIV-1 replication cycle the compound VII acts according to the present invention, a sophisticated method, schematized in FIG. 2, has been used, specifically only focusing on the entry step of HIV-1 in target cells.
(§5) Briefly, a colorimetric reaction is developed when two populations of properly engineered cells meet and in particular a donor, carrying on the surface the glycoprotein of HIV-1 gp120 and a target, together with the primary receptor CD4 and with one of the co-receptors, CXCR4 or CCR5. In this case there is a fusion of the cells and the polymerase T7 can pass from the donor cell to the target one in which it triggers the transcription of beta-galactosidase with subsequent protein translation. Thus the latter is able to perform its enzymatic action in the presence of the convenient substrate (CPRG, chlorophenol red-3-D galactopyranoside) developing a colorimetric reaction measured by detection of optical density (OD) at 570 nm.
(§6) In the first one, the target cells are mouse fibroblasts (3T3 in FIG. 3 A/B), on the contrary in the second one the target cells are human epithelial cells (HeLa, in FIG. 3 C/D). The graphs show the mean values of the culture triplicate with the standard deviation.

[4] = tested on: fusion mediated by gp120 of HIV-1 using CXCR4; experiment: gp120-mediated cell-cell fusion assay, target cells with CD4 and CXCR4 (colorimetric, OD 570 nm)
Source text: as §4, §5, §6

[5] = 0.1 μM, p24 on days 4 and 7 post-infection (FIG. 1C/D)
[6] = 1 μM, p24 on days 4 and 7 post-infection (FIG. 1C/D)
[7] = 30, 10 and 3 μM, p24 on days 4 and 7 post-infection (FIG. 1A/B)

Structure (SMILES): Cn1cc(NC(=O)c2cc3cc(NC(=O)Nc4ccc5c(c4)cc(C(=O)Nc4cc(C(=O)Nc6ccc7cc(S(=O)(=O)O)cc(S(=O)(=O)O)c7c6)n(C)c4)n5C)ccc3n2C)cc1C(=O)Nc1ccc2cc(S(=O)(=O)O)cc(S(=O)(=O)O)c2c1 [compound (VII)]
- inhibition of replication of HIV-1 IIIB [1, 5]: not more effective
- inhibition of replication of HIV-1 IIIB [1, 6]: inhibited completely
- inhibition of replication of HIV-1 IIIB [1, 7]: completely inhibited
- relative effectiveness in replication inhibition, CXCR4-using versus CCR5-using virus ([1]; comparison of IIIB with Bal at 1 μM): higher effectiveness of the compound against viruses using the chemokine receptor CXCR4
- inhibition of replication of HIV-1 Bal [2, 5]: not more effective
- inhibition of replication of HIV-1 Bal [2, 6]: almost totally lost the inhibitory ability
- inhibition of replication of HIV-1 Bal [2, 7]: completely inhibited
- inhibition of fusion mediated by gp120 of HIV-1 using CCR5 [3]: able to inhibit, in a way depending on the concentration
- relative potency in fusion inhibition, HIV-1 using CXCR4 versus HIV-1 using CCR5 ([4]; comparison of CXCR4 (the latter) with CCR5): more potent against the latter
- inhibition of fusion mediated by gp120 of HIV-1 using CXCR4 ([4]; target cells 3T3 mouse fibroblasts and HeLa human epithelial cells (FIG. 3 A/C)): able to inhibit, in a way depending on the concentration
